No end group written: not given here.
Experiments:
[1] = system: cytosolic Ca^2+ level; assay: Intracellular Ca2+ measurement in HCSMCs; assay type: cell-based, human; settings: HCSMCs pretreated 1 hour with 3 μM ψPLB-SE or 15 μM MDL28170, then 50 μM A23187 2 hours
Method: FIGS. 4a, 4b, 4c and 4d. (4a-4c) HCSMCs were pretreated with 3 μM ψPLB-SE and 15 μM MDL28170 for 1 hour, and then treated with 50 μM A23187 for 2 hours. (4a) Immunostaining was performed with antibodies against SERCA2a and SERCA2b (green). Nuclei were stained with Hoechst (blue). Representative merged images are shown. Scale bar, 50 μm. (4b) Western blot analysis was performed with cell extracts. Data are expressed as the means±SD (n=3-4; *, P<0.05). (4c) Baseline Ca^2+ concentration was measured by lonOptix calcium imaging system. (4d) RASMC were treated with ψPLB-SE or control peptide under the same conditions as described for FIG. 1B. The baseline Ca^2+ concentration was measured by lonOptix calcium imaging system (*, P<0.05).
The intracellular Ca^2+ level was measured in VSMCs by loading cells with 0.5 μM Fura2-AM (Molecular Probes, Eugene Oreg., USA), a Ca^2+-sensitive indicator, for 15 minutes at 37. The fluorescence was recorded using the lonOptix calcium imaging system. VSMCs were stimulated by the exposure to light emitted by a 75 W halogen lamp through either a 340 nm or 380 nm filter. The fluorescent emissions were detected between 480 nm and 520 nm by a photomultiplier tube after an initial illumination at 340 nm for 0.5 second and then at 380 nm during recording. The 340 nm excitation scan was repeated at the end of the protocol, and qualitative changes in the intracellular Ca^2+ level were inferred from the ratio of the Fura2 fluorescent intensity at both wavelengths.

[2] = system: eNOS and Akt; assay: eNOS and Akt phosphorylation in PAECs (western blotting); assay type: cell-based
Method: FIGS. 16a, 16b and 16c. (16a-16b) PAECs were treated with 3 μM ψPLB-SE for 1 hour, and protein expression was quantitatively analyzed through western blotting using antibodies against Phospho-eNOS (ser1177), total eNOS, phospho-Akt (Ser473, Thr308), total Akt, and GAPDH. (16c) The pulmonary tissue lysate was subjected to immunoprecipitation using PP1 antibody to investigate the interactions of PP1 with eNOS and Akt depending on the presence or absence of the treatment with ψPLB-SE using respective antibodies therefor.
FIGS. 17a, 17b and 17c. (17a) PAECs were treated with 50 μM LY294002, a PI3K inhibitor, for 24 hours, and then treated with 3 μM ψPLB-SE for 1 hour. Protein expression was quantitatively analyzed through western blotting using antibodies against Phospho-eNOS (ser1177), total eNOS, phospho-Akt (Ser473, Thr308), total Akt, and GAPDH. (17b) PAECs were treated with 10 μM inhibitor IV, an Akt inhibitor, for 2 hours, and then treated with 3 μM ψPLB-SE for 1 hour. Protein expression was quantitatively analyzed through western blotting using antibodies against total eNOS and GAPDH. (17c) PAECs were treated with 100 nM OA, a PP1 inhibitor, for 24 hours, and then treated with 3 μM ψPLB-SE for 1 hour. Protein expression was quantitatively analyzed through western blotting using antibodies against Phospho-eNOS (ser1177), total eNOS, phospho-Akt (Ser473, Thr308), total Akt, and GAPDH.
ψPLB-SE (RAE16TIEMPQ; SEQ ID NO: 2) was derived from the PLB protein sequence surrounding the Ser16 phosphorylation site. To facilitate uptake into cells, the peptide was conjugated to the cell penetrating peptide dNP2 ([…]; SEQ ID NO: 21) or TAT (YGRKKRRQRRR; SEQ ID NO: 22). The peptides used in the present invention were PLB-SE (RAETIEMPQ; SEQ ID NO: 2) and control peptide (RASTIEMPQ; SEQ ID NO: 23). PLB-SE and cell penetrating peptide were connected by a linker peptide (GGG; SEQ ID NO: 24) The peptides (purity of 95% or higher, AnyGen, Gwangju, Korea) was resuspended in double-distilled water or physiological saline at a stock concentration of 3 mM (cells), 2.5 mg/ml (rats), or 500 μg/ml (mice). The rats were treated with 1 mg/kg peptides and mice were treated with 2 mg/kg peptides. The rat aortic smooth muscle cells (RASMCs), human coronary smooth muscle cells (HCSMCs), pulmonary arterial endothelial cells (PAECs), and pulmonary arterial smooth muscle cells (PASMCs) were treated with the peptides at a final concentration of 3 μM for 1 hour. The PI3K inhibitor LY294002 (Millipore, USA), the Akt inhibitor Inhibitor IV (Calbiochem, USA), and the PP1 inhibitor okadaic acid (Sigma Aldrich, USA), used in the experiments using pulmonary arterial endothelial cells (PAECs), were purchased. For the monocrotaline aqueous solution, the monocrotaline powder (Sigma Aldrich, USA) was dissolved in a small amount of a 1 M hydrochloric acid solution (HCL), diluted with sterilized distilled water, and adjusted to pH 7.35 by addition of sodium hydroxide (NaOH). The animals were bred and observed in the same conditions as in the control group during the experiment periods. In addition, the calcium ionophore A23187 and the calpain I and II inhibitors MDL28170 and […] were purchased from Sigma-Aldrich (St. Louis, Mo., USA).
Vascular smooth muscle cells (VSMCs) were homogenized in a minimal volume of 50 mM Tris-HCl, pH 7.4, supplemented with a broad-spectrum protease inhibitor cocktail (Calbiochem). The proteins were separated by SDS-PAGE and then transferred to polyvinylidene fluoride membranes (Schleicher & Schuell). After blocking with 5% (w/v) non-fat milk for 1 hour and washing with TBST, the membranes were incubated with antibodies against SERCA2a, SERCA2b (21st century biochemical), PCNA (abcam), GAPDH (Sigma-Aldrich), phospho-eNOS, eNOS, phospho-eIF2α, eIF2α (cell signaling), Vimentin, α-SMA, BMPR2 (Santa cruz), phospho-Akt, Akt (cell signaling), phospho-phospholamban (Merck), and Phospholamban (cell signaling). […]

RAETIEMPQ (not fully specified) [ψPLB-SE, 9-mer PP1 decoy peptide mimicking phosphorylated PLB; conjugated via GGG linker to cell penetrating peptide dNP2 or TAT]
elevation of the cytosolic Ca^2+ level by A23187 [1]: normalized
phosphorylation of Akt and eNOS ([2]; 100 nM okadaic acid followed by ψPLB-SE): further increased
phosphorylation of Akt serine 473 and threonine 308 ([2]; 3 μM for 1 hour): increased
phosphorylation of eNOS serine 1177 ([2]; 3 μM for 1 hour): increased
phosphorylation of eNOS threonine 495 ([2]; 3 μM for 1 hour): reduced
eNOS phosphorylation ([2]; Inhibitor IV 10 μM then ψPLB-SE): did not increase
phosphorylation of eNOS and Akt ([2]; LY294002 50 μM followed by ψPLB-SE): increased

— patent US11426441B2, “Composition comprising protein phosphatase 1 inhibitory peptide for treating vascular diseases” (BethphaGen Inc., priority 2016, dated 2022)
